Experimental data: patent EP4692089A1, “NITROGEN-CONTAINING HETEROCYCLIC COMPOUND AS AAK1 INHIBITOR” (Alicorn Pharmaceutical Co., Ltd., priority 2023, dated 2024)
pEC50, pIC50: −log10 of the molar value. Values belong to the compound of their own block, whether it stands above or below them.

Assays:
[1] = target: T1, AAK1 (30-330) protein (Homo sapiens, UniProt Q2M2I8); test: CETSA test of binding ability to AAK1 protein (Western blot)
T1 construct: (His)6x (N); TEV protease cleavage site (N); made in house; host or cells: Escherichia coli BL21(DE3)
T1 sequence (Q2M2I8 30-330): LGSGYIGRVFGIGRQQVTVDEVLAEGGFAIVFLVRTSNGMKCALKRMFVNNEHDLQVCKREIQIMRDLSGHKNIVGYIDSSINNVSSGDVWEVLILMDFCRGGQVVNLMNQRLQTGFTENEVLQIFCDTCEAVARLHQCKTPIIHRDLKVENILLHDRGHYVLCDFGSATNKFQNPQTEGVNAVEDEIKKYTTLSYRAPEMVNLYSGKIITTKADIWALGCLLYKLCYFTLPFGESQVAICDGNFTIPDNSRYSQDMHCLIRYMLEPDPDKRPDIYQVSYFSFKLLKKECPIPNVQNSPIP
Procedure: Experimental objective: To detect the binding ability of compounds to AAK1 protein by means of a CETSA experiment.
Background principle: The CETSA experiment is a molecular detection means for measuring the affinity between drugs and target proteins. […] When a candidate drug is co-incubated with a target protein, if the candidate drug is an inhibitor of AAK1, it can bind to AAK1. […] On the contrary, the stability of the AAK1 protein after heating will be poorer, and the amount of the detected protein will be lower. In this way, the binding ability of the drug to the target protein can be evaluated, which is used for the screening of AAK1 protein inhibitors.
(§1) Expression of AAK1 (30-330) protein: The AAK1 sequence (residues 30-330) was cloned into the pET24N vector with an N-terminal (His)6x tag and a tobacco etch virus (TEV) protease cleavage site. The constructed vector was transformed into Escherichia coli BL21(DE3). When the bacteria were cultured with shaking to reach an OD value of 0.6, 1 mM IPTG was added. […] The bacterial cells were collected and subjected to ultrasonic disruption. The supernatant was obtained by centrifugation, and the protein was purified using Ni-NTA. After dialysis, the concentration and purity of the protein were determined.
CETSA sample preparation: Samples were incubated with candidate drugs, control drugs, and control reagents separately for 30 minutes. Each group of samples was heated at approximately 10 pre-set temperature points. After being returned to room temperature, the samples were centrifuged at 20000 g, and the supernatants were collected. Protein samples were denatured by heating at 100°C for 10 minutes with a sample buffer. After the samples were returned to room temperature, Western blot detection was performed on them; the protein loading amount was controlled at 20 µg. […] The same operations were followed, and Western blot detection was conducted. Protein electrophoresis: The voltage for the stacking gel was set at 60 V, and that for the separating gel was set at 120 V. After electrophoresis, electrotransfer was initiated. Electrotransfer conditions were set at 250 mA for 2 h. Blocking with 5% BSA was performed for 1 h. A specific primary antibody was added, and incubation was carried out overnight at 4°C on a shaker. Washing with TBST was conducted 4 times, with 2.5 minutes each time. A secondary antibody was incubated on a shaker at room temperature for 1 h. Washing with TBST was conducted 4 times, with 2.5 minutes each time. ECL was used for development to detect the expression levels of AAK1 protein in different groups and at each temperature point. Western blot bands were processed and converted using Image J and GraphPad software to calculate EC50.

[2] = target: T2, AAK1 (Homo sapiens, UniProt Q2M2I8); test: Effect on AP2M1 phosphorylation in 293T cells co-transfected with AAK1 and AP2M1 (Western blot, anti-p-AP2M1); assay type: cell-based; conditions: p-AP2M1 level, incubated 3 h
T2 construct: HA; expressed in transfected cells; host or cells: 293T cells
T2 sequence (Q2M2I8 whole entry): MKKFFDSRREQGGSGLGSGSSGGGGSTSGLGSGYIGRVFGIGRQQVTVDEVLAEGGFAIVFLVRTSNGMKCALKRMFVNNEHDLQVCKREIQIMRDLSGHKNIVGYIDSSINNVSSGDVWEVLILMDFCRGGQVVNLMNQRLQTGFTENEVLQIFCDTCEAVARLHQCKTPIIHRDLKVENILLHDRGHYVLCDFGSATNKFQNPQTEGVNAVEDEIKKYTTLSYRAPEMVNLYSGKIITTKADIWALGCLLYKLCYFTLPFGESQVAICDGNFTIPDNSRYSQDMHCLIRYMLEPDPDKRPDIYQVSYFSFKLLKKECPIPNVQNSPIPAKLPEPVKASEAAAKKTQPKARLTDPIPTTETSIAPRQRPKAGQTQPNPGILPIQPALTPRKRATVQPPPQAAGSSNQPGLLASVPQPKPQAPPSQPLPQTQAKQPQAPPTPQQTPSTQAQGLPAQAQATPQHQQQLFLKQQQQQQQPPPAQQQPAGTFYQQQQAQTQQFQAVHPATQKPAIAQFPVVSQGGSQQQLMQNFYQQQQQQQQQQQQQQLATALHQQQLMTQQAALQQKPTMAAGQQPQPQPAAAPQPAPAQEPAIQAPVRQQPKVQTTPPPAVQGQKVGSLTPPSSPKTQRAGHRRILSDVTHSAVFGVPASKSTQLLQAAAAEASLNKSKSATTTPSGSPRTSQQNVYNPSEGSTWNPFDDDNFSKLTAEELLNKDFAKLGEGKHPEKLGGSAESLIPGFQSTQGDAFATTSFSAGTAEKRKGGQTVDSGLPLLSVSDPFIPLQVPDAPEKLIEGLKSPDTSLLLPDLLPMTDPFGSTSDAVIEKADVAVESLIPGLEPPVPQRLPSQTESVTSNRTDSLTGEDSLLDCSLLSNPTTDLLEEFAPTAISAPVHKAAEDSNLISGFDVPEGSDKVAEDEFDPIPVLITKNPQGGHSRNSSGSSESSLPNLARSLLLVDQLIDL
From the text: Experimental objective: The objective of this test example is to determine the effect of compounds on AP2M1 phosphorylation in cells.
Background principle: Adaptor-associated kinase 1 (AAK1), also known as AP2-associated kinase 1, is a 104 kDa serine/threonine kinase. AAK1 interacts with the adaptor protein 2 (AP2) complex and phosphorylates the threonine residue in the micro-subunit of AP2 (AP2M1), thereby increasing its binding affinity for certain tyrosine-based or dileucine-based sorting signals of some membrane receptors. The inhibitory effect of compounds on AAK1 was evaluated by detecting the phosphorylation level of AP2M1 in cells, so as to screen candidate compounds.
On the second day, each T25 flask was co-transfected with 16 µg of plasmids (1 µg of AAK1/HA/pIRES and 15 µg of Flag/AP2MI/pcDNA) using a Lip2000 transfection reagent. On the third day, the cells were digested and resuspended, centrifuged at 1000 rpm for 5 minutes, and then seeded into 24-well plates at 450 µl per well (2 × 10^5 cells/well). Gradient dilutions of the compounds to be tested were prepared, 50 µl was added to each well, mixed thoroughly, and incubated at 37°C for 3 h. DMSO was set as a control, and cells without plasmid transfection were set as a blank control. After incubation, the cells were collected and washed twice with PBS. The cells were lysed on ice for 30 minutes using a cell lysis buffer containing the protease inhibitor PMSF. The concentration of protein samples was determined using a BCA kit. Protein electrophoresis: The voltage for the stacking gel was set at 60 V, and that for the separating gel was set at 120 V. After electrophoresis, electrotransfer was initiated. Electrotransfer conditions were set at 250 mA for 2 h. Blocking with 5% BSA was performed for 1 h. A specific primary antibody, anti-p-AP2M1, was added, and incubation was carried out overnight at 4°C on a shaker. Washing with TBST was conducted 4 times, with 2.5 minutes each time. A secondary antibody was incubated on a shaker at room temperature for 1 h. Washing with TBST was conducted 4 times, with 2.5 minutes each time. ECL was used for development to detect the expression level of p-AP2M1. Western blot bands were processed and converted using Image J and GraphPad software to calculate IC50.
IC50 (half maximal inhibitory concentration) refers to the half-inhibitory concentration of the measured antagonist. It can indicate the concentration of a certain drug or substance (inhibitor) that achieves half of the inhibition effect on certain biological processes (or certain substances involved in these processes, such as enzymes, cellular receptors, or microorganisms).

[3] = target: T1, AAK1 (30-330) protein; test: AAK1 kinase assay (ADP generated, detected by HPLC); assay type: biochemical; conditions: 3.5 nM AAK1, 22 µM ATP, 25°C, 3 h
From the text: Experimental objective: The objective of this test example is to test the effect of compounds on AAK1 kinase function.
Background principle: AAK1 phosphorylates the threonine residue in the micro-subunit of AP2 (AP2M1). In this process, ATP provides phosphate groups to generate ADP. Therefore, the activity of AAK1 kinase can be evaluated by detecting the amount of ADP generated.
as §1
The reaction mixture was incubated in a metal bath at 25°C for 3 h. The reaction was terminated by adding 1% SDS, and the amount of ADP generated was detected by HPLC. IC50 values were calculated using GraphPad software.

[4] = system: streptozotocin (STZ)-induced peripheral neuropathic pain (DPNP) in diabetic rat models; test: Efficacy test in diabetic peripheral neuropathic pain (DPNP), Von Frey pain threshold; assay type: in vivo, SD rats
Procedure: Experimental methods: After the adaptation period, the rats were tested for baseline plantar pain threshold using the Von Frey (Up-Down method) before modeling. Subsequently, except for the blank control group, all other rats were fasted for 16 hours with free access to water and then intraperitoneally injected with streptozotocin for modeling (65 mg/kg; 2 mL/kg). One week after modeling, blood was collected from the tail tip to detect blood glucose levels after a 4-hour fast. Rats with blood glucose levels higher than 16.7 mmol/L were considered diabetic.

[5] = Pharmacokinetic test in SD rats; conditions: rat, plasma, po, 3 mg/kg
Procedure: Experimental objective: The objective of this experimental example is to test the pharmacokinetic profile of compounds in SD rats.
Route of administration: The animals were weighed before administration, and the dose was calculated based on their body weight. Administration was performed via intravenous injection and oral gavage.
Blood collection time points: After administration, for IV group: 0.083 h, 0.25 h, 0.5 h, 1 h, 2 h, 4 h, 8 h, and 24 h; for PO group: 0.25 h, 0.5 h, 1 h, 2 h, 4 h, 6 h, 8 h, and 24 h. Blood was collected via the jugular vein, with approximately 0.2 mL collected for each sample. The blood samples were anticoagulated with K2-EDTA and placed on ice after collection.
Plasma sample processing: After collection, the blood samples were placed on ice and centrifuged within 1 hour to separate plasma (centrifugation conditions: 6800g, 6 minutes, 2-8°C). The plasma samples were stored in a -80°C refrigerator before analysis.
Result analysis: Pharmacokinetic parameters were calculated using Phoenix WinNonlin 7.0 based on the plasma concentration data at different time points.

[6] = Blood-brain distribution in DPNP model rats; conditions: 1 mg/kg
Procedure: Experimental objective: This experiment aims to investigate the analgesic effect of test compounds on streptozotocin (STZ)-induced peripheral neuropathic pain (DPNP) in diabetic rat models and the brain-blood distribution of the compounds associated with the efficacy, via single oral gavage (ig.) administration.
After successful modeling, the baseline plantar pain threshold of the rats was tested using the Von Frey (UP-Down method) as the baseline pain threshold before administration, and the rats were evenly grouped according to their pain thresholds. The groups included a blank control group, a model group, a positive control group (1 mg/kg), a Compound 26 (0.5 mg/kg) group, and a Compound 26 (1 mg/kg) group. The next day, the rats were administered the vehicle or corresponding drugs. At 2 h, 3 h, 4 h, 5 h, and 6 h after administration, the pain threshold of the plantar region on the affected side of rats was determined using Von Frey filaments to calculate the pain threshold improvement rate of the test compounds against neuropathic pain in diabetic rats, and to observe the time-effect relationship. After the experiment, rats from groups G3-G5 (numbers 1-3 per group) were sacrificed, and plasma and brain tissue samples were collected for testing.

[7] = DPNP model rats, 6 h after intragastric administration

SMILES: CC(C)C[C@](C)(N)COc1ccc(-c2ccnc(C(F)F)c2)nc1C(F)F [BMS-986176, reference compound]
pEC50 [1]: 6.00 to 7.00 | pIC50 [2]: 6.00 to 7.00 | pIC50 [3]: 6.58 | MWT (g) After modeling ([4]; 1 mg/kg group, after modeling, before administration, x±s, n=5): 7.00 ± 1.83 g | Pain threshold improvement rate 2h ([4]; 1 mg/kg single ig., 2 h): 64.51 | MWT (g) 2h ([4]; 1 mg/kg single ig., 2 h after administration, x±s, n=5): 10.38 ± 2.59 g | Pain threshold improvement rate 3 h ([4]; 1 mg/kg single ig., 3 h): 42.24 | MWT (g) 3 h ([4]; 1 mg/kg single ig., 3 h after administration, x±s, n=5): 7.51 ± 4.29 g | Pain threshold improvement rate 4h ([4]; 1 mg/kg single ig., 4 h): 20.35 | MWT (g) 4 h ([4]; 1 mg/kg single ig., 4 h after administration, x±s, n=5): 5.06 ± 2.76 g | Pain threshold improvement rate 5 h ([4]; 1 mg/kg single ig., 5 h): 16.32 | MWT (g) 5 h ([4]; 1 mg/kg single ig., 5 h after administration, x±s, n=5): 4.82 ± 1.07 g | Pain threshold improvement rate 6h ([4]; 1 mg/kg single ig., 6 h): 20.85 | MWT (g) 6h ([4]; 1 mg/kg single ig., 6 h after administration, x±s, n=5): 4.63 ± 0.64 g | duration of analgesia ([4]; 1 mg/kg, time after administration): ≤ 4 h | AUC(0-inf) [5]: 1160 ng·h/mL | AUC(0-t) [5]: 1070 ng·h/mL | Cmax [5]: 85.6 ng/mL | MRT inf [5]: 9.5 h | MRT last [5]: 7.52 h | Tmax [5]: 3.33 h | half-life [5]: 6.32 h | Brain tissue concentration [6, 7]: 26.94 ng/mL | Brain tissue concentration* [6, 7]: 296.36 ng/g | Plasma concentration [6, 7]: 34.38 ng/mL | Kp at 6 h ([6]; rat, brain, po): 8.62

pEC50 [1]: > 8.00 | pIC50 [2]: > 8.00 | pIC50 [3]: 8.09
SMILES: CC(C)C[C@](C)(N)COc1ccc(-c2c[nH]c3ncc(Cl)cc23)nc1C(F)F [Compound 44, (S)-1-{[6-(5-chloro-1H-pyrrolo[2,3-b]pyridin-3-yl)-2-(difluoromethyl)pyridin-3-yl]oxy}-2,4-dimethylpentan-2-amine]

pEC50 [1]: > 8.00 | pIC50 [2]: > 8.00 | pIC50 [3]: 8.19
SMILES: Cc1cnc2[nH]cc(-c3ccc(OC[C@@](C)(N)CC(C)C)c(C(F)F)n3)c2c1 [Compound 45, (S)-1-{[2-(difluoromethyl)-6-(5-methyl-1H-pyrrolo[2,3-b]pyridin-3-yl)pyridin-3-yl]oxy}-2,4-dimethylpentan-2-amine diformate]
